Experiments:
Format in all cases: cell-based, human
hPSC-derived NC cells [1] = assay: Single-cell RNA-seq clustering of hPSC-derived NC cells; conditions: SAG treatment groups (day 0-4, day 0-10)
Text: To understand how HH signaling influences the topology of the neuronal differentiation path of NC, Applicant profiled additional 1,146 single-cell transcriptomes of NC cells with the constant (day 0-10) or early-phase (day 0-4) SAG treatment and NC-derived neurons sampled from day 32 of differentiation as shown in FIG. 4A. Together with 392 control NC cells, a total of 1,538 individual cells were sequenced with 5844 median genes and 1.16 million mean confident mapped reads per cell (FIG. 8). […]
Bulk and single-cell (sc) RNA sequencing were performed at the Centre of Genomic Science, The University of Hong Kong. […] Then, 1 μl of cDNA was checked and quantified on an Agilent Bioanalyzer high-sensitivity DNA chip. […] Libraries were checked and quantified on an Agilent Bioanalyzer high-sensitivity DNA chip (size range 150-2000 bp) and by Qubit dsDNA BR (Molecular Probes). […]
Fastq files with paired-end reads were aligned to the ENSEMBL GRCh38 (release 90, https://www.ensembl.org/) human transcriptome using Bowtie2 v2.3.4.1 (Langmead and Salzberg, 2012) with options ‘—sensitive—mp 1,1—np 1—score-min L,0,-0.1-I 1-X 2000—no-mixed—no-discordant-N 1-L 25-k 200’ which allows one mismatch during sequence alignment. Quality control of the reads of each cell was assessed using FastQC v0.11.6 (FIG. 8). Gene expression level was quantified using TPM values generated by RSEM v1.3.0 (Li and Dewey, 2011). […]

[2] = test system: hPSCs (hPSC-to-NC transition); assay: hPSC-to-NC differentiation, flow cytometry of HNK-1+ p75NTR+ cells; conditions: for percentage of HNK-1+ p75NTR+ cells (NC yield): flow cytometry at day 10
HCOs+ENCCs = assay: Innervated HCO model, immunostaining of neurons
[3] = test system: ENCC-derived neurons in HCO explants; assay: Ex vivo neuromuscular coupling test of HCO muscle strips (DMPP stimulation)
HCOs+ENCCs explants = assay: Electrical-field stimulation (EFS) of explanted innervated HCO kidney grafts
hPSCs = assay: Early-phase lineage immunocytochemistry during NC induction (SOX2+NANOG-, SNAIL+, TUJ1+/TH+)
hPSC-derived NC cells [4] = assay: In vitro neuronal differentiation of FACS-sorted NC cells, immunocytochemistry; conditions: NC^SAG0-10 cells, day 22 of differentiation
Text: On the other hand, NC^SAG0-10 cells could grow and expand as competently as the control cells. Applicant then examined the differentiation potential of NC^SAG0-10 cells on the basis of their neuronal differentiation capability, as monitored by the expression of pan-neuronal markers (HU, TUJ1 and PGP9.5) and subtype markers, such as tyrosine hydroxylase (TH) for dopaminergic neurons and vasoactive intestinal polypeptide (VIP) for cholinergic neurons, which are the major subtypes of nerve cells found in the ENS.
Around 40 thousand FACS-enriched NC cells were seeded as droplets on poly-ornithine/laminin/fibronectin (PO/LM/FN)-coated 24 well plate in N2 medium containing 10 ng/ml FGF2, 3 μM CHIR99021 and 10 μM Y-27632. […]
For immunocytochemistry, the cells were fixed with 4% paraformaldehyde in PBS at room temperature for 30 min, followed by blocking with 1% bovine serum albumin (BSA) (Thermo Scientific, 23209) with or without 0.1% Triton X-100 (Sigma, T8787) in PBS buffer. […] Quantitative image analysis of differentiated neuronal cultures was performed with ImageJ. A minimum of 4,000 cells were analyzed per sample. Percentages of neuronal cells were measured over the total number of cells (DAPI) and the values reported in bar charts represent the mean±SEM.

**Q.** How did the “proportion of SAG-specific NC intermediates (Clusters 6 & 7; SOX10-, PHOX2B+, TUBB3high) in total population” value (hPSC-derived NC cells [1]) turn out when `CNC1CCC(N(Cc2cccc(-c3ccncc3)c2)C(=O)c2sc3ccccc3c2Cl)CC1` (stereo not shown) [SAG] was run?
**A.** The value was “up to 75%”.

**Q.** What about the “percentage of HNK-1+ p75NTR+ cells (NC yield)” value ([2]; SAG 1 μM, days 0-10 (constant), untreated 19.6±0.51%) of the same molecule?
**A.** The value was 42.5±9.3%.

**Q.** And the “percentage of HNK-1+ p75NTR+ cells (NC yield)” value ([2]; SAG added 4 days in early phase (day 0-4))?
**A.** The value was “up to 44.6±9.1%”.

**Q.** What about the “mature neurons expressing PGP9.5 and NF vs control” value (HCOs+ENCCs; HCO+ENCCs^SAG0_10 explants) of the same molecule?
**A.** Its value is “more mature neurons”.

**Q.** What about the “TUJ1+ and TH+ cells aligned with epithelial cells of HCOs vs control” value (HCOs+ENCCs; HCOs with ENCCs^SAG0_10 in vitro (Day 28)) of the same molecule?
**A.** Its value is “more TUJ1^+ and TH^+ cells”.

**Q.** What about the “survival and engraftment efficiency of ENCCs to HCOs” value (HCOs+ENCCs; SAG treatment during NC induction) of the same molecule?
**A.** The value was “greatly improves”.

**Q.** And the “contractile responses to DMPP compared to HCO+ENCC” value ([3]; HCO+ENCC^SAG0_10)?
**A.** Its value is “stronger contractile responses”.

**Q.** And the “EFS-induced wave-like contractions compared to HCO+ENCC group” value (HCOs+ENCCs explants; HCO+ENCC^SAG0_10 explants (ENCCs derived with SAG day 0-10))?
**A.** The value was “more profound series of wave-like contractions”.

**Q.** And the “number of SOX2+NANOG- cells (ectoderm lineage commitment)” value (hPSCs; brief activation in early phase of NC induction, day 4 of differentiation)?
**A.** The value was “increases the number”.

**Q.** And the “formation of NC-like cells (SNAIL+)” value (hPSCs; longer SAG treatment (4 days))?
**A.** The value was “emerged as early as day 4”.

**Q.** What about the NC-to-neuron transition (hPSCs; prolonged (day 0-10) or late-phase (day 4-10) SAG treatment) of the same molecule?
**A.** The NC-to-neuron transition was “boosted the NC-to-neuron transition”.

**Q.** What about the “numbers of TH+ and VIP+ neurons compared to control” value (hPSC-derived NC cells [4]) of the same molecule?
**A.** The value was “Significantly greater numbers”.

**Q.** Which results are given for `NC1=N[C@H](O)[C@H]2[C@H]3O[C@]4(O)O[C@@H]([C@@H](O)[C@@]2(N1)[C@@H]4O)[C@]3(O)CO` [TTX, tetrodotoxin]?
**A.** DMPP-induced muscle contraction [3]: completely abolished; EFS-induced contractions (HCOs+ENCCs explants): completely inhibited; contractile activity triggered by low-voltage stimulation (HCOs+ENCCs explants): completely inhibited

**Q.** For `CC1=C2C[C@H]3[C@@H](CC=C4C[C@@H](O)CC[C@@]43C)[C@@H]2CC[C@]12O[C@@H]1C[C@H](C)CN[C@H]1[C@H]2C` [cyclopamine], which “hPSC-to-NC transition (percentage of HNK-1+p75NTR+ cells)” value [2] is on record?
**A.** Its value is “dramatically suppressed”.

From patent US12600943B2, “Innervated organoid compositions and methods of making same” (priority 2019, dated 2026)
